Source: patent US8222254B2, “1, 2, 4-triazole derivatives as serotonergic modulators” (Prosarix Limited, priority 2007, dated 2012)

Tests used:
[1] = test system: α1-adrenergic receptor; experiment: α1-Adrenergic Receptor Assay, [3H]Prazosin competition binding; set-up: species or system rat; conditions: selectivity 5HT1A over α1-adrenergic
Method: The determination of binding of the ligand with α1-adrenergic receptor was carried out according to the procedures described in Greengrass P and Bremner R. Eur. J. Pharmacol. 1979, 55: 323-326.
For competition binding, radiolabelled 0.25 nM [3H]Prazosin was incubated for 30 minutes at 25° C. with al transfected wisatar rat cerebral cortex cell membranes in 50 mM Tris-HCl, pH7.4, 0.1% Ascorbic acid, 10 mM Pargyline and increasing concentrations of test compound. The non specific ligand used was 0.1 uM Prazosin. Significance criteria was 50% of max stimulation or inhibition.

[2] = target: T1, dopamine D2L receptor (Homo sapiens, UniProt P14416); experiment: Dopamine D2 Receptor Assay, [3H]Spiperone competition binding; conditions: selectivity 5HT1A over dopamine D2
T1 construct: expressed in transfected cells; host or cells: CHO cells
Method: The determination of binding of the ligand with dopamine D2L receptor was carried out according to the procedures described in Grandy et al. Proc. Natl. Acad. Sci. 1989, 86: 9762-9766.
For competition binding, radiolabelled 0.16 nM [3H]Spiperone was incubated for 120 minutes at 25° C. with D2L transfected human recombinant CHO cells in 50 mM Tris-HCl, pH7.4, 150 mM NaCl, 1.4 mM Ascorbic acid, 0.001% BSA and increasing concentrations of test compound. The non-specific ligand used was […] haloperidol. Significance criteria was 50% of max stimulation or inhibition.

[3] = target: T2, 5HT1A (Homo sapiens, UniProt P08908); experiment: GTPγS assay for 5HT1A agonist activity; type: biochemical; conditions: bound [35S]GTPγS relative to serotonin response
T2 construct: expressed in transfected cells; host or cells: CHO cells (Chinese hamster)
T2 sequence (P08908 1-422): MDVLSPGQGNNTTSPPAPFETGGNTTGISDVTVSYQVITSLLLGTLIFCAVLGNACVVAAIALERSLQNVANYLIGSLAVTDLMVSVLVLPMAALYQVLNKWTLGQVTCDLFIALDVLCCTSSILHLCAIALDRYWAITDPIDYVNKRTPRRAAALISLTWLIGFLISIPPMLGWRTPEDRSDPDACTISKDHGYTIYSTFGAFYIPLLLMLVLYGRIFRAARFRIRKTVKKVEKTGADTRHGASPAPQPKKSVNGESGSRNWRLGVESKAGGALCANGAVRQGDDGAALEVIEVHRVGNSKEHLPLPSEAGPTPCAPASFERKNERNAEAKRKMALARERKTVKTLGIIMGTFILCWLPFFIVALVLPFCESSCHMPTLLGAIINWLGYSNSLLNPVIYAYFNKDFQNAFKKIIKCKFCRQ
Method: Selected compounds were tested for 5HT1A agonist activity using a GTPγS assay. GTPγS binding for 5HT1A was determined according to the procedures of Adlersberg et al. J Neurosci. Res. 2000, 61(6): 674-685. Compounds were incubated for 30 minutes at 30° C. in 20 mM HEPES, pH7.4, 100 mM NaCl, 10 mM MgCl2, 1 mM DTT, 1 mM EDTA with human CHO cells Chinese hamster. Quantitation of bound [^35S] GTPγS was determined with agonist significance criteria of >50% increase in bound [^35S] GTPγS relative to serotonin response.

[4] = Metabolic stability in human liver microsomes; type: in vitro ADME; conditions: pH 7.4, 1 μM compound, 0.3 mg/mL microsomes, pH7.4, 37° C.
Method: Metabolic stability of selected compounds in human liver microsomes was assessed using the procedure described by Kuhnz and Gieschen, Drug Metab. Dispos. 1998, 26: 1120-1127. Compounds (1 μM) were measured by LC/MS following 0 and 60 minute incubations with human liver microsomes (0.3 mg/mL) at pH7.4 and 37° C.

[5] = Metabolic stability in rat liver microsomes; type: in vitro ADME; conditions: pH 7.4

T1 sequence (P14416 whole entry): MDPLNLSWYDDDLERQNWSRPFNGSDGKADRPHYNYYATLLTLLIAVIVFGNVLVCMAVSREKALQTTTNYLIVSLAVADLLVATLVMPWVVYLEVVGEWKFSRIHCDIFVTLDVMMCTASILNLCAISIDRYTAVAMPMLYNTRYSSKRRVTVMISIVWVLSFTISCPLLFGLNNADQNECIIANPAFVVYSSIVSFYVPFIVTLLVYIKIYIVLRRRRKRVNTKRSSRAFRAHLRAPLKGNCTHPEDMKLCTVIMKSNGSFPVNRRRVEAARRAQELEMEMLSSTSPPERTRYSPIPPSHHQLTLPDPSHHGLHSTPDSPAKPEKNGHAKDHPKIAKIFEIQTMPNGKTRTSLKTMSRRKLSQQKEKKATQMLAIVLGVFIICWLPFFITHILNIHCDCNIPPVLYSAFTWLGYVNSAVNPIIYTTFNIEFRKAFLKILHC

**Q.** For `COc1ccccc1N1CCN(C(C)Cc2nn(C)c(=O)n2CC2CCCCC2)CC1` (stereo not drawn) [Example 37, 4-(Cyclohexylmethyl)-5-{2-[4-(2-methoxyphenyl)piperazin-1-yl]propyl}-2-methyl-2,4-dihydro-3H-1,2,4-triazol-3-one], which “affinity for 5HT1A relative to affinity for α1-adrenergic receptors” value [1] is on record?
**A.** more than fifty times greater

**Q.** And the “affinity for 5HT1A relative to affinity for dopamine D2 receptors” value [2]?
**A.** more than fifty times greater

**Q.** For `COc1ccccc1N1CCN(CCc2n[nH]c(=O)n2C(c2ccccc2)c2ccccc2)CC1` [Example 28, 4-Benzhydryl-5-{2-[4-(2-methoxy-phenyl)-piperazin-1-yl]-ethyl}-2,4-dihydro-[1,2,4]triazol-3-one], which EC50 [3] is on record?
**A.** < 200 nM

**Q.** With `COc1ccccc1N1CCN(CCc2n[nH]c(=O)n2Cc2ccc(Cl)c(Cl)c2)CC1` [Example 21, 4-(3,4-Dichloro-benzyl)-5-{2-[4-(2-methoxy-phenyl)-piperazin-1-yl]-ethyl}-2,4-dihydro-[1,2,4]triazol-3-one] as the compound, how does the EC50 [3] read?
**A.** < 200 nM

**Q.** Which “affinity for 5HT1A relative to affinity for α1-adrenergic receptors” value [1] does the source give for `CC(=O)Nc1cccc(N2CCN(CCCc3n[nH]c(=O)n3CC3CCCCC3)CC2)c1` [Example 39, N-(3-{4-[3-(4-Cyclohexylmethyl-5-oxo-4,5-dihydro-1H-[1,2,4]triazol-3-yl)-propyl]-piperazin-1-yl}-phenyl)-acetamide] here?
**A.** more than fifty times greater

**Q.** With `COc1ccccc1N1CCN(CCc2n[nH]c(=O)n2Cc2ccccc2)CC1` [Example 13, 4-Benzyl-5-{2-[4-(2-methoxy-phenyl)-piperazin-1-yl]-ethyl}-2,4-dihydro-[1,2,4]triazol-3-one] as the compound, how does the half-life at 1 μM [4] read?
**A.** ≥ 1 h

**Q.** What about the half-life at 1 μM [5] of the same compound?
**A.** ≥ 1 h

**Q.** What does the source list for `CC(=O)Nc1cccc(N2CCN(CCc3nn(C)c(=O)n3CC3CCCCC3)CC2)c1` [Example 41, N-[3-(4-{2-[4-(Cyclohexylmethyl)-1-methyl-5-oxo-4,5-dihydro-1H-1,2,4-triazol-3-yl]ethyl}piperazino)phenyl]acetamide]?
**A.** EC50 [3]: < 200 nM; affinity for 5HT1A relative to affinity for dopamine D2 receptors [2]: more than a thousand times greater

**Q.** Which results are given for `CC(=O)Nc1cccc(N2CCN(CCc3n[nH]c(=O)n3CC3CCCCC3)CC2)c1` [Example 38, N-[3-(4-{2-[4-(Cyclohexylmethyl)-5-oxo-4,5-dihydro-1H-1,2,4-triazol-3-yl]ethyl}piperazin-1-yl)phenyl]acetamide]?
**A.** affinity for 5HT1A relative to affinity for α1-adrenergic receptors [1]: more than fifty times greater; affinity for 5HT1A relative to affinity for dopamine D2 receptors [2]: more than fifty times greater

**Q.** For `COc1ccccc1N1CCN(CCc2n[nH]c(=O)n2Cc2cccc(F)c2)CC1` [Example 26, 4-(3-Fluoro-benzyl)-5-{2-[4-(2-methoxy-phenyl)-piperazin-1-yl]-ethyl}-2,4-dihydro-[1,2,4]triazol-3-one], which half-life at 1 μM [4] is on record?
**A.** ≥ 1 h

**Q.** And the half-life at 1 μM [5]?
**A.** ≥ 1 h

**Q.** For `COc1ccccc1N1CCN(CCc2n[nH]c(=O)n2C2CCCCCCC2)CC1` [Example 10, 4-Cyclooctyl-5-{2-[4-(2-methoxyphenyl)piperazino]ethyl}-2,4-dihydro-3H-1,2,4-triazol-3-one], which EC50 [3] is on record?
**A.** < 200 nM

**Q.** Which EC50 [3] does the source give for `COc1ccccc1N1CCN(CCc2n[nH]c(=O)n2-c2ccc(Cl)c(Cl)c2)CC1` [Example 33, 4-(3,4-Dichloro-phenyl)-5-{2-[4-(2-methoxy-phenyl)-piperazin-1-yl]-ethyl}-2,4-dihydro-[1,2,4]triazol-3-one] here?
**A.** < 200 nM

**Q.** For `COc1ccccc1N1CCN(CCc2nn(C)c(=O)n2CC2CCCCC2)CC1` [Example 42, 4-(Cyclohexylmethyl)-5-{2-[4-(2-methoxyphenyl)piperazino]ethyl}-2-methyl-2,4-dihydro-3H-1,2,4-triazol-3-one], which EC50 [3] is on record?
**A.** < 200 nM

**Q.** Which half-life at 1 μM [4] does the source give for `COc1ccccc1N1CCN(CCc2n[nH]c(=O)n2CC2CCCCC2)CC1` [Example 17, 4-(Cyclohexylmethyl)-5-{2-[4-(2-methoxyphenyl)piperazino]ethyl}-2,4-dihydro-3H-1,2,4-triazol-3-one] here?
**A.** ≥ 1 h

**Q.** What about the half-life at 1 μM [5] of the same compound?
**A.** ≥ 1 h
